Test results reported in patent US11209437B2, “Fluorescent probe and preparation method and use thereof” (Fluorescence Diagnosis (shanghai) Biotech Company Ltd., priority 2016, dated 2021).

Tests used:
[1] = Viscosity responsiveness: fluorescence emission spectra of probes in glycerol and methanol; assay type: physicochemical; conditions: for Emission wavelength: excited at maximum excitation wavelength of each probe; for Fluorescence ratio in glycerol to methanol: probe 1×10^−5 M
Description: Probes 1 to 98, 101, 103, 105, 107, 109, 111, 114, 117, and 120, and the reference probes 99, 100, 102, 104, 106, 108, 110, 112, 113, 115, 116, 118, 119, 121, BG-CCVJ and BG-Gly-CCVJ were dissolved in dimethyl sulfoxide, respectively, to prepare mother liquors having a concentration of 1×10^−2 M, to each of which glycerol and methanol were added and uniformly mixed, to prepare solutions finally having a concentration of 1×10^−5 M. Depending on the probes, fluorescence emission spectra of the probes were detected successively with the maximum excitation wavelength of each probe under the same conditions, and the results were shown in Table 1.
That is, these probes are sensitive to viscosity changes and have viscosity responsiveness.

[2] = Fluorescence of free probe prior to binding to a protein tag; assay type: physicochemical
Description: (§1) Probes were mixed with corresponding protein tags to obtain mixed samples, in which the final probe concentration was 5 μM, and the final protein tag concentration was 10 μM. The mixed samples were incubated 37° C. for 1 hr, fluorescence spectrophotometer was used to detect the change in fluorescence intensity, and the results are shown in Table 1.
(§2) From the quantum yield of probe bound to protein tag, after reacting with the protein tags, the probes of the Examples could be detected to have significant signal enhancement in corresponding excitation transmission channels, the fluorescence activation multiple reached several hundreds to a thousand or more, and the brightness was high, which illustrates that after the probes of the Examples are bound to the protein tags, fluorescence of the probes can be activated, and the probes have good fluorescent molecular switching properties. In contrast, though the fluorescence of the reference probes could also be activated, the quantum yield of activated fluorescence was very low, and the brightness was very poor. In particular, in view of comparison results between probe 98 and reference probe 99, probe 101 and reference probe 102, probe 103 and reference probe 104, probe 105 and reference probe 106, probe 107 and reference probe 108, probe 109 and reference probe 110, probe 111 and reference probe 112, probe 114 and reference probe 115, probe 117 and reference probe 118, probe 120 and reference probe 121 in Table 1, for the same fluorescent dye, when the ligand is connected to the electron donor part of the fluorescent dye, the fluorescence activation brightness of the probe is much higher than the reference probe in which ligand is connected to the electron acceptor part of the fluorescent dye.

SNAP protein tags = target: T1, SNAP protein tags (Homo sapiens, UniProt P16455, A127T/A154D/C150Q/C62A/E30R/G131K/G132T/G153L/K125A/K32I/L33F/M134L/N157G/Q115S/Q116H/R128A/R135S/S151G/S152D/S159E); assay: Fluorescence activation of probe after incubation with corresponding protein tag (SNAP); assay type: biochemical; conditions: probe 5 μM, protein tag 10 μM, 37° C., 1 hr
T1 sequence (P16455 1-182 E30R/K32I/L33F/C62A/Q115S/Q116H/K125A/A127T/R128A/G131K/G132T/M134L/R135S/C150Q/S151G/S152D/G153L/A154D/N157G/S159E): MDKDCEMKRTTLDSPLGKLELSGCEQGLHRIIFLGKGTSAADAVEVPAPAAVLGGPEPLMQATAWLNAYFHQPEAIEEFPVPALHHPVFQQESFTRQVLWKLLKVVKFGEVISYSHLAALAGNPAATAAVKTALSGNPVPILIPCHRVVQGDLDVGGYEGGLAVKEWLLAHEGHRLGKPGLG
Description: as §1, §2

SMILES	Emission wavelength [1] [nm]	Fluorescence ratio in glycerol to methanol [1]	Quantum yield of free probe [2]	Fluorescence activation multiple (SNAP protein tags)	Quantum yield of probe bound to protein tag (SNAP protein tags)
CN(CCO)c1cc2c(s1)-c1sc(/C=C(/C#N)C(=O)NCc3ccc(COc4nc(N)nc5[nH]cnc45)cc3)cc1C2(C)C [Reference Probe 99, reference compound]	649	129	<0.001	53	0.01
CN(C)c1ccc(/C=C(\C#N)C(=O)NCc2ccc(COc3nc(N)nc4[nH]cnc34)cc2)cc1 [Reference Probe 100, reference compound]	480	213	<0.001	43	0.011
CN(CCO)c1ccc(/C=C(\C#N)C(=O)NCc2ccc(COc3nc(N)nc4[nH]cnc34)cc2)cc1 [Reference Probe 102, reference compound]	480	212	<0.001	31	0.02
N#C/C(=C\c1ccc2c(c1)SCCN2CCO)C(=O)NCc1ccc(COc2nc(N)nc3[nH]cnc23)cc1 [Reference Probe 104, reference compound]	515	351	<0.001	23	0.02
CC1=CC(C)(C)N(CCO)c2ccc(/C=C(\C#N)C(=O)NCc3ccc(COc4nc(N)nc5[nH]cnc45)cc3)cc21 [Reference Probe 106, reference compound]	555	215	<0.001	62	0.01
CN(CCO)c1cc2sc(/C=C(\C#N)C(=O)NCc3ccc(COc4nc(N)nc5[nH]cnc45)cc3)cc2s1 [Reference Probe 108, reference compound]	555	329	<0.001	30	0.02
CN(CCO)c1ccc(C#C/C=C(\C#N)C(=O)NCc2ccc(COc3nc(N)nc4[nH]cnc34)cc2)cc1 [Reference Probe 110, reference compound]	567	218	<0.001	23	0.01
CN(CCO)c1ccc2cc(/C=C(\C#N)C(=O)NCc3ccc(COc4nc(N)nc5[nH]cnc45)cc3)sc2c1 [Reference Probe 112, reference compound]	570	211	<0.001	41	0.01
CN(C)c1ccc2nc(/C=C(\C#N)C(=O)NCc3ccc(COc4nc(N)nc5[nH]cnc45)cc3)sc2c1 [Reference Probe 113, reference compound]	625	129	<0.001	36	0.01
CN(CCO)c1ccc2nc(/C=C(\C#N)C(=O)NCc3ccc(COc4nc(N)nc5[nH]cnc45)cc3)sc2c1 [Reference Probe 115, reference compound]	625	113	<0.001	38	0.01
CN(C)c1ccc(-c2ccc(/C=C(\C#N)C(=O)NCc3ccc(COc4nc(N)nc5[nH]cnc45)cc3)s2)cc1 [Reference Probe 116, reference compound]	620	125	<0.001	29	0.01
CN(CCO)c1ccc(-c2ccc(/C=C(\C#N)C(=O)NCc3ccc(COc4nc(N)nc5[nH]cnc45)cc3)s2)cc1 [Reference Probe 118, reference compound]	621	158	<0.001	29	0.02
CN(C)c1ccc(-c2ccc(/C=C(\C#N)C(=O)NCc3ccc(COc4nc(N)nc5[nH]cnc45)cc3)s2)s1 [Reference Probe 119, reference compound]	655	362	<0.001	15	0.01
CN(CCO)c1ccc(-c2ccc(/C=C(\C#N)C(=O)NCc3ccc(COc4nc(N)nc5[nH]cnc45)cc3)s2)s1 [Reference Probe 121, reference compound]	655	219	<0.001	39	0.01
N#C/C(=C\c1cc2c3c(c1)CCCN3CCC2)C(=O)NCc1ccc(COc2nc(N)nc3[nH]cnc23)cc1 [Reference Probe BG-CCVJ, reference compound]	501	260	<0.001	170	0.02
N#C/C(=C\c1cc2c3c(c1)CCCN3CCC2)C(=O)NCC(=O)NCc1ccc(COc2nc(N)nc3[nH]cnc23)cc1 [Reference Probe BG-Gly-CCVJ, reference compound]		260	<0.001	60	
CN(CCOC(=O)NCc1ccc(COc2nc(N)nc3[nH]cnc23)cc1)c1ccc(/C=C(\C#N)c2nc3ccccc3o2)cc1 [probe 2]	510	410	0.001	146	0.15
CN(CCOC(=O)NCc1ccc(COc2nc(N)nc3[nH]cnc23)cc1)c1ccc(/C=C(\C#N)c2nc3ccccc3s2)cc1 [probe 3]	532	399	0.0019	139	0.27
CN(CCOC(=O)NCc1ccc(COc2cc(Cl)nc(N)n2)cc1)c1ccc(/C=C(\C#N)C(=O)OC(C)(C)C)cc1 [probe 4]	480	562	<0.001	490	0.35
CN(CCOC(=O)NCc1ccc(COc2cc(Cl)nc(N)n2)cc1)c1ccc(/C=C(\C#N)c2nc3ccccc3o2)cc1 [probe 5]	555	790	<0.001	1174	0.15
